Results taken from ChEMBL document CHEMBL1134300, “Oxindole-based inhibitors of cyclin-dependent kinase 2 (CDK2): design, synthesis, enzymatic activities, and X-ray crystallographic analysis” (J Med Chem, 2001).

Legend:
[1] = target: Cyclin-dependent kinase 1 (Homo sapiens, UniProt P06493)
Description: Inhibitory activity against human cyclin-dependent kinase 1 (CDK1)

[2] = target: Cyclin-dependent kinase 2 (Homo sapiens, UniProt P24941)
Description: Inhibitory activity against human cyclin-dependent kinase 2 (CDK2)

Cyclin-dependent kinase 1, sequence (P06493 whole entry): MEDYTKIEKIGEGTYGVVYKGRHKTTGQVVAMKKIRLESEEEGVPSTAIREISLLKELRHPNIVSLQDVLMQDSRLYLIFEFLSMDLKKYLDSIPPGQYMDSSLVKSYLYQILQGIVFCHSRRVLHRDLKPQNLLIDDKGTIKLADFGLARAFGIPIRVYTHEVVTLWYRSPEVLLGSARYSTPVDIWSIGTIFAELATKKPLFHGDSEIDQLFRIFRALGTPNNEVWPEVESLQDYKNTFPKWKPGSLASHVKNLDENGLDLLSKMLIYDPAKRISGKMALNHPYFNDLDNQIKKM

Row | SMILES | IC50 [1] [nM] | IC50 [2] [nM]
1 | CNS(=O)(=O)c1ccc(N/C=C2\C(=O)Nc3ccccc32)cc1 | 2900 | –
2 | CNS(=O)(=O)Cc1ccc(NN=C2C(=O)Nc3ccc4ncsc4c32)cc1 | 56 | –
3 | O=C1Nc2ccc(-c3cnco3)cc2/C1=C/Nc1ccc2c(c1)CS(=O)(=O)C2 | 19 | 8.9
4 | O=C1Nc2ccccc2/C1=C/Nc1ccc(S(=O)(=O)Nc2nccs2)cc1 | 3800 | –
5 | O=C1Nc2ccc3ncsc3c2/C1=C/Nc1ccc(S(=O)(=O)Nc2ccccn2)cc1 | 100 | –
6 | NS(=O)(=O)c1ccc(NN=C2C(=O)Nc3cccc(CCc4ccncc4)c32)cc1 | 290 | 21
7 | O=C1Nc2ccc3ncsc3c2/C1=C/Nc1ccc(S(=O)(=O)NCc2ccccc2)cc1 | 52 | 5.6
8 | CC(=O)NS(=O)(=O)c1ccc(N/C=C2\C(=O)Nc3ccc4ncsc4c32)cc1 | 910 | 75
9 | O=C1Nc2ccc3ncsc3c2/C1=C/Nc1ccc(S(=O)(=O)Nc2ccccc2)cc1 | 41 | 4.3
10 | CNS(=O)(=O)c1ccc(N/C=C2\C(=O)Nc3ccc4ncsc4c32)cc1 | 64 | 5.6
11 | O=C1Nc2ccc3ncsc3c2/C1=C/Nc1ccc(S(=O)(=O)NCCO)cc1 | 41 | 4.7
12 | CN(C)S(=O)(=O)c1ccc(N/C=C2\C(=O)Nc3ccc4ncsc4c32)cc1 | 50 | 4.6
13 | CN(C)CCNS(=O)(=O)c1ccc(N/C=C2\C(=O)Nc3ccccc32)cc1 | 5500 | 1000
14 | COCCOCCOCCOCCN(C)S(=O)(=O)c1ccc(N/C=C2\C(=O)Nc3ccc4ncsc4c32)cc1 | 45 | 1
15 | COCCOCCOCCOCCNS(=O)(=O)c1ccc(N/C=C2\C(=O)Nc3ccc4ncsc4c32)cc1 | 72 | 4.5
16 | O=C1Nc2ccc3ncsc3c2/C1=C/Nc1ccc(S(=O)(=O)NCCc2c[nH]cn2)cc1 | 38 | 3.6
17 | Cc1cccc(C)c1NS(=O)(=O)c1ccc(N/C=C2\C(=O)Nc3ccc4ncsc4c32)cc1 | 14000 | 281
18 | CN(c1ccccn1)S(=O)(=O)c1ccc(N/C=C2\C(=O)Nc3ccc4ncsc4c32)cc1 | 64 | 5.6
19 | N=C(N)NS(=O)(=O)c1ccc(N/C=C2\C(=O)Nc3ccc4ncsc4c32)cc1 | 45 | 3.3
20 | CNS(=O)(=O)Cc1ccc(N/C=C2\C(=O)Nc3ccc4ncsc4c32)cc1 | 170 | 26
21 | NS(=O)(=O)Cc1ccc(N/C=C2\C(=O)Nc3ccc4ncsc4c32)cc1 | 100 | 7.5

Row | SMILES | IC50 [1] [nM] | IC50 [2] [nM]
22 | O=C1Nc2ccc3ncsc3c2/C1=C/Nc1ccc(CS(=O)(=O)NCCO)cc1 | 200 | 13
23 | O=C1Nc2ccc3ncsc3c2/C1=C/Nc1ccc(S(=O)(=O)NCCOCCO)cc1 | 12 | 0.54
24 | CS(=O)(=O)c1ccc(N/C=C2\C(=O)Nc3ccc4ncsc4c32)cc1 | 39 | 5.7
25 | O=C1Nc2ccc3ncsc3c2/C1=C/Nc1ccc(S(=O)(=O)N[n+]2ccc3ccccc3c2)cc1 | 42 | –
26 | CS(=O)(=O)Cc1ccc(N/C=C2\C(=O)Nc3ccc4ncsc4c32)cc1 | 1200 | 50
27 | COc1ccc2c(c1)C(=NNc1ccc(S(N)(=O)=O)cc1)C(=O)N2 | 210 | 12
28 | Cc1cc(C)c2c(c1)/C(=C/Nc1ccc(S(N)(=O)=O)cc1)C(=O)N2 | > 10000 | > 10000
29 | NS(=O)(=O)c1ccc(N/C=C2\C(=O)Nc3ccccc32)cc1 | 3000 | 690
30 | NS(=O)(=O)c1ccc(NN=C2C(=O)Nc3ccc4[nH]nc(Cl)c4c32)cc1 | 83 | 2.2
31 | NS(=O)(=O)c1ccc(N/C=C2\C(=O)Nc3ccc(-c4cnco4)cc32)cc1 | 17 | 2.5
32 | COc1cccc(OC)c1CNC(=O)c1ccc2c(c1)C(=NNc1ccc(S(N)(=O)=O)cc1)C(=O)N2 | 9.3 | 1.7
33 | NS(=O)(=O)c1ccc(N/C=C2\C(=O)Nc3cccc(CO)c32)cc1 | 1700 | 54
34 | CC(C)Oc1cccc2c1C(=NNc1ccc(S(N)(=O)=O)cc1)C(=O)N2 | 41 | 3.4
35 | CCc1ccc2c(c1)NC(=O)C2=NNc1ccc(S(N)(=O)=O)cc1 | 660 | 21
36 | NS(=O)(=O)c1ccc(NN=C2C(=O)Nc3cc(Br)ccc32)cc1 | 520 | 43
37 | CC(C)(C)c1ccc2c(c1)NC(=O)/C2=N\Nc1ccc(S(N)(=O)=O)cc1 | > 10000 | > 10000
38 | NC(=O)c1cccc2c1C(=NNc1ccc(S(N)(=O)=O)cc1)C(=O)N2 | > 1000 | > 1000
39 | COc1ccc2c(c1Cl)C(=NNc1ccc(S(N)(=O)=O)cc1)C(=O)N2 | 1700 | 54
40 | Nc1ccc2c(c1)C(=NNc1ccc(S(N)(=O)=O)cc1)C(=O)N2 | 1400 | 74
41 | NS(=O)(=O)c1ccc(NN=C2C(=O)Nc3ccc(C(=O)NCc4cccnc4)cc32)cc1 | 51 | 2.1
42 | NS(=O)(=O)c1ccc(N/N=C2\C(=O)Nc3cccc(/C=C/c4ccc(O)cc4)c32)cc1 | 170 | –

Row | SMILES | IC50 [1] [nM] | IC50 [2] [nM]
43 | NS(=O)(=O)c1ccc(NN=C2C(=O)Nc3ccc(S(N)(=O)=O)cc32)cc1 | 170 | 43
44 | CS(=O)(=O)c1ccc2c(c1)C(=NNc1ccc(S(N)(=O)=O)cc1)C(=O)N2 | 350 | 16
45 | Cc1c([N+](=O)[O-])ccc2c1C(=NNc1ccc(S(N)(=O)=O)cc1)C(=O)N2 | 87 | 4.6
46 | NS(=O)(=O)c1ccc(N/C=C2\C(=O)Nc3ccc(C(=O)O)cc32)cc1 | 150 | 28
47 | NS(=O)(=O)c1ccc(NN=C2C(=O)Nc3cccc(-c4cc[nH]n4)c32)cc1 | 250 | 19
48 | NS(=O)(=O)c1ccc(NN=C2C(=O)Nc3ccc4[nH]ncc4c32)cc1 | 120 | 13
49 | NS(=O)(=O)c1ccc(NN=C2C(=O)Nc3cc(Oc4ccccc4)ccc32)cc1 | > 10000 | > 10000
50 | NS(=O)(=O)c1ccc(NN=C2C(=O)Nc3ccc(I)cc32)cc1 | 95 | 11
51 | NS(=O)(=O)c1ccc(NN=C2C(=O)Nc3ccc(F)cc32)cc1 | 290 | 34
52 | NS(=O)(=O)c1ccc(/N=N/c2c(O)[nH]c3cccc(I)c23)cc1 | 110 | 4.6
53 | NS(=O)(=O)c1ccc(N/N=C2\C(=O)Nc3ccc4ncsc4c32)cc1 | 43 | 7.1
54 | Cc1cccc2c1NC(=O)/C2=C\Nc1ccc(S(N)(=O)=O)cc1 | > 10000 | > 10000
55 | CCOC(=O)c1cccc2c1/C(=C/Nc1ccc(S(N)(=O)=O)cc1)C(=O)N2 | 130 | 8.9
56 | NS(=O)(=O)c1ccc(NN=C2C(=O)Nc3cccc(Oc4ccccc4)c32)cc1 | 290 | 13
57 | NS(=O)(=O)c1ccc(NN=C2C(=O)Nc3cccc([N+](=O)[O-])c32)cc1 | > 1000 | 2400
58 | NS(=O)(=O)c1ccc(NN=C2C(=O)Nc3ccc(O)cc32)cc1 | 77 | 10
59 | COC(=O)c1ccc2c(c1)/C(=C/Nc1ccc(S(N)(=O)=O)cc1)C(=O)N2 | 12 | 2.1
60 | CN(C)C(=O)c1ccc2c(c1)C(=NNc1ccc(S(N)(=O)=O)cc1)C(=O)N2 | 130 | 17
61 | NS(=O)(=O)c1ccc(N/C=C2\C(=O)Nc3cc(CO)ccc32)cc1 | 740 | 61
62 | Cc1cc(Cl)cc2c1NC(=O)/C2=C\Nc1ccc(S(N)(=O)=O)cc1 | > 10000 | > 10000
63 | NC(=O)c1ccc2c(c1)C(=NNc1ccc(S(N)(=O)=O)cc1)C(=O)N2 | 2.8 | 4.5

Row | SMILES | IC50 [1] [nM] | IC50 [2] [nM]
64 | CC(C)Cc1cccc2c1C(=NNc1ccc(S(N)(=O)=O)cc1)C(=O)N2 | 19 | 1.2
65 | CCc1cccc2c1C(=NNc1ccc(S(N)(=O)=O)cc1)C(=O)N2 | 46 | 7.9
66 | CC(C)c1cccc2c1C(=NNc1ccc(S(N)(=O)=O)cc1)C(=O)N2 | 37 | 2.5
67 | Cc1ccc2c(c1Cl)C(=NNc1ccc(S(N)(=O)=O)cc1)C(=O)N2 | 250 | 13
68 | CCOc1cccc2c1C(=NNc1ccc(S(N)(=O)=O)cc1)C(=O)N2 | 550 | 93
69 | NS(=O)(=O)c1ccc(NN=C2C(=O)Nc3ccc([N+](=O)[O-])cc32)cc1 | 710 | 15
70 | C/C(Nc1ccc(S(N)(=O)=O)cc1)=C1/C(=O)Nc2ccc(-c3cnco3)cc21 | 7.1 | 2
71 | NS(=O)(=O)c1ccc(NN=C2C(=O)Nc3ccc(S(=O)(=O)O)cc32)cc1 | 130 | 15
72 | C/C(Nc1ccc(S(N)(=O)=O)cc1)=C1/C(=O)Nc2ccc(Cl)cc21 | 220 | 22
73 | CC(C)CC(=O)c1ccc2c(c1)/C(=C/Nc1ccc(S(N)(=O)=O)cc1)C(=O)N2 | 16 | 1.9
74 | NS(=O)(=O)c1ccc(N/N=C2\C(=O)Nc3ccccc32)cc1 | 1300 | 120
75 | NS(=O)(=O)c1ccc(N/C=C2\C(=O)Nc3ccc4ncccc4c32)cc1 | 15 | 1.5
76 | Cc1ccc2c(c1)C(=NNc1ccc(S(N)(=O)=O)cc1)C(=O)N2 [GW275944X] | 330 | 46
77 | NS(=O)(=O)c1ccc(N/N=C2\C(=O)Nc3ccc(-c4cnco4)cc32)cc1 [GW276655X] | 10 | 2.3
78 | NS(=O)(=O)c1ccc(N/N=C2\C(=O)Nc3ccc(Cl)cc32)cc1 [GW280670X] | 300 | 43
79 | NS(=O)(=O)c1ccc(NN=C2C(=O)Nc3ccc(C(=O)NCCCn4ccnc4)cc32)cc1 [GW290597X] | 230 | 25
80 | CC(C)c1ccc2c(c1)NC(=O)/C2=N/Nc1ccc(S(N)(=O)=O)cc1 [GW300653X] | 790 | 75
81 | NS(=O)(=O)c1ccc(NN=C2C(=O)Nc3ccc(C(=O)NCc4ccncc4)cc32)cc1 [GW300657X] | 74 | 8.9
